The subject of this test is HBV viral production from HepAD38 cells. Put plainly: Activity of test compounds on viral production from HepAD38 cells (viral load by qPCR of HBV core sequence in supernatant). The conditions noted are these: Hepatitis B virus, 120 h, 5 days incubation, HBV DNA in supernatant by qPCR, top concentration 10 μM, read-out: Viral Load EC50 Activity range. Format: cell-based. The method, boiled down: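 EC50 and CC50 come from four-parameter fits of supernatant viral load and CellTiter-Glo viability, respectively. Viral load was measured by core-region TaqMan qPCR against HBV DNA standards and compared with DMSO controls. Tet-free HepAD38 cells (50,000/well, 2% FBS) were exposed to compound, highest 10 μM, for 5 days at 37° C.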
(In qPCR the cycle at which signal appears reflects the starting amount.)

A value given as a limit tells only on which side of the number the result lay.

As to `CN1[C@H](C(=O)Nc2ccc(F)c(Cl)c2)C[C@H](c2cc(-c3ccccc3)cs2)NS1(=O)=O` [HBV-CSU-148-ISO-I, Cis-N-(3-chloro-4-fluorophenyl)-2-methyl-5-(4-phenylthiophen-2-yl)-1,2,6-thiadiazinane-3-carboxamide 1,1-dioxide], the EC50 (in general, the concentration giving half of the maximal effect) was below 1 µM.
Then `Cc1ncc([C@H]2C[C@@H](C(=O)Nc3ccc(F)c(Cl)c3)N(C)S(=O)(=O)N2)s1` [HBV-CSU-224-ISO-I, Cis-N-(3-Chloro-4-fluorophenyl)-2-methyl-5-(2-methylthiazol-5-yl)-1,2,6-thiadiazinane-3-carboxamide 1,1-dioxide], with below 1 µM.
With `O=C(Nc1ccc(F)c(Cl)c1)C1CC(c2nccs2)NS(=O)(=O)N1CCCN1CCCC1` (stereo not drawn) [HBV-CSU-102, Cis-N-(3-Chloro-4-fluorophenyl)-2-(3-(pyrrolidin-1-yl)propyl)-5-(thiazol-2-yl)-1,2,6-thiadiazinane-3-carboxamide 1,1-dioxide], the EC50 was above 5 µM.
The value for `CN1C(C(=O)Nc2ccc(F)c(Cl)c2)CC(c2ccc(-c3ccc(Br)c(F)c3)s2)NS1(=O)=O` (stereo not drawn) [HBV-CSU-157, Cis-N-(3-chloro-4-fluorophenyl)-5-(5-(4-bromo-3-fluorophenyl)thiophen-2-yl)-2-methyl-1,2,6-thiadiazinane-3-carboxamide 1,1-dioxide] was 1 to 5 µM.
Take `CN1C(C(=O)Nc2ccc(F)c(Cl)c2)CC(c2cc(-c3ccc(F)cn3)cs2)NS1(=O)=O` (racemic) [HBV-CSU-243, Cis-N-(3-chloro-4-fluorophenyl)-5-(4-(5-fluoropyridin-2-yl)thiophen-2-yl)-2-methyl-1,2,6-thiadiazinane-3-carboxamide 1,1-dioxide]: the EC50 was below 1 µM.
Then `CN1[C@H](C(=O)Nc2ccc(F)c(Cl)c2)C[C@H](c2ncc(-c3ccccn3)s2)NS1(=O)=O` [HBV-CSU-176-ISO-I, Cis-N-(3-chloro-4-fluorophenyl)-2-methyl-5-(5-(pyridin-2-yl)thiazol-2-yl)-1,2,6-thiadiazinane-3-carboxamide 1,1-dioxide], with below 1 µM.
As for `O=C(Nc1ccc(F)c(Cl)c1)[C@H]1C[C@@H](c2nccs2)NS(=O)(=O)N1` [HBV-CSU-096-ISO-I, Cis-N-(3-Chloro-4-fluorophenyl)-5-(thiazol-2-yl)-1,2,6-thiadiazinane-3-carboxamide 1,1-dioxide], the EC50 was above 5 µM.
In the case of `CN1[C@H](C(=O)Nc2ccc(F)c(Cl)c2)C[C@H](c2ncc(-c3cccnc3)s2)NS1(=O)=O` [HBV-CSU-175-ISO-I, Cis-N-(3-Chloro-4-fluorophenyl)-2-methyl-5-(5-(pyridin-3-yl)thiazol-2-yl)-1,2,6-thiadiazinane-3-carboxamide 1,1-dioxide], the EC50 is below 1 µM.
Then `CN1[C@H](C(=O)Nc2ccc(F)c(Cl)c2)C[C@H](c2ncc(-c3ccn(C)n3)s2)NS1(=O)=O` (stereo in doubt) [HBV-CSU-280-ISO-I, Cis-N-(3-Chloro-4-fluorophenyl)-2-methyl-5-(5-(1-methyl-1H-pyrazol-3-yl)thiazol-2-yl)-1,2,6-thiadiazinane-3-carboxamide 1,1-dioxide], with 1 to 5 µM; and `Cc1cnc([C@H]2C[C@@H](C(=O)Nc3ccc(F)c(Cl)c3)N(C)S(=O)(=O)N2)s1`, with below 1 µM.
With `COc1ccc(-c2ccc([C@H]3C[C@@H](C(=O)Nc4ccc(F)c(Cl)c4)N(C)S(=O)(=O)N3)s2)cc1` [HBV-CSU-240-ISO-I], the EC50 is below 1 µM.
The value for `Cc1nn(C)c(C)c1-c1csc(C2CC(C(=O)Nc3ccc(F)c(Cl)c3)N(C)S(=O)(=O)N2)c1` (racemic) [HBV-CSU-317, Cis-N-(3-chloro-4-fluorophenyl)-2-methyl-5-(4-(1,3,5-trimethyl-1H-pyrazol-4-yl)thiophen-2-yl)-1,2,6-thiadiazinane-3-carboxamide 1,1-dioxide] was below 1 µM; that for `CN1[C@@H](C(=O)Nc2ccc(F)c(Cl)c2)C[C@@H](c2ncc(-c3cccnc3)s2)NS1(=O)=O` [HBV-CSU-175-ISO-II, Cis-N-(3-Chloro-4-fluorophenyl)-2-methyl-5-(5-(pyridin-3-yl)thiazol-2-yl)-1,2,6-thiadiazinane-3-carboxamide 1,1-dioxide] was below 1 µM.
Then `CN1C(C(=O)Nc2ccc(F)c(Cl)c2)CC(c2ncc(-c3ccccc3)s2)NS1(=O)=O` (stereo not drawn), with below 1 µM; and `COCCN1C(C(=O)Nc2ccc(F)c(Br)c2)CC(c2nccs2)NS1(=O)=O` (racemic) [HBV-CSU-059, Cis-N-(3-bromo-4-fluorophenyl)-2-(2-methoxyethyl)-5-(thiazol-2-yl)-1,2,6-thiadiazinane-3-carboxamide 1,1-dioxide], with below 1 µM; and `NC(=O)CN1C(C(=O)Nc2ccc(F)c(Cl)c2)CC(c2nccs2)NS1(=O)=O` (stereo not drawn), with 1 to 5 µM.
The value for `COCCCN1[C@H](C(=O)Nc2ccc(F)c(Cl)c2)C[C@H](c2nccs2)NS1(=O)=O` [HBV-CSU-077-ISO-II, Cis-N-(3-Chloro-4-fluorophenyl)-2-(3-methoxypropyl)-5-(thiazol-2-yl)-1,2,6-thiadiazinane-3-carboxamide 1,1-dioxide] was below 1 µM; that for `CN1C(C(=O)Nc2ccc(F)c(Cl)c2)CC(c2ccc(O)c(Cl)c2)NS1(=O)=O` (stereo not drawn) [HBV-CSU-220, Cis-N-(3-chloro-4-fluorophenyl)-5-(3-chloro-4-hydroxyphenyl)-2-methyl-1,2,6-thiadiazinane-3-carboxamide 1,1-dioxide] was below 1 µM.
For the compound `CN1[C@@H](C(=O)Nc2ccc(F)c(Cl)c2)C[C@@H](c2ncc(Br)s2)NS1(=O)=O` [HBV-CSU-122-ISO-II, Cis-5-(5-bromothiazol-2-yl)-N-(3-chloro-4-fluorophenyl)-2-methyl-1,2,6-thiadiazinane-3-carboxamide 1,1-dioxide], the 50% effective concentration (EC50) lay within 1 to 5 µM.
The value for `[2H]C([2H])([2H])N1[C@@H](C(=O)Nc2ccc(F)c(Cl)c2)C[C@@H](c2ncc(Br)s2)NS1(=O)=O` [HBV-CSU-336-ISO-II, 5-(5-Bromothiazol-2-yl)-N-(3-chloro-4-fluorophenyl)-2-(methyl-d3)-1,2,6-thiadiazinane-3-carboxamide 1,1-dioxide] was 1 to 5 µM; that for `[2H]C1[C@]([2H])(c2ccc(Br)s2)NS(=O)(=O)N(C([2H])([2H])[2H])[C@]1([2H])C(=O)Nc1ccc(F)c(Cl)c1` (stereo in doubt) [HBV-CSU-372-ISO-I, Cis-5-(5-bromothiophen-2-yl)-N-(3-chloro-4-fluorophenyl)-2-(methyl-d3)-1,2,6-thiadiazinane-3,4,5-d3-3-carboxamide 1,1-dioxide] was below 1 µM; that for `CN1[C@@H](C(=O)Nc2ccc(F)c(Cl)c2)C[C@@H](c2ccc(-c3ccccn3)s2)NS1(=O)=O` [HBV-CSU-160-ISO-II, Cis-N-(3-chloro-4-fluorophenyl)-2-methyl-5-(5-(pyridin-2-yl)thiophen-2-yl)-1,2,6-thiadiazinane-3-carboxamide 1,1-dioxide] was 1 to 5 µM.
For `O=C(Nc1ccc(F)c(Cl)c1)[C@@H]1C[C@H](c2nccs2)NS(=O)(=O)N1CCO` (relative stereo) [HBV-CSU-097-ISO-II, Cis-N-(3-Chloro-4-fluorophenyl)-2-(2-hydroxyethyl)-5-(thiazol-2-yl)-1,2,6-thiadiazinane-3-carboxamide 1,1-dioxide], the EC50 is above 5 µM.
The value for `CN1C(C(=O)Nc2ccc(F)c(Cl)c2)CC(c2ccccn2)NS1(=O)=O` (racemic) [HBV-CSU-031, Cis-N-(3-Chloro-4-fluorophenyl)-2-methyl-5-(pyridin-2-yl)-1,2,6-thiadiazinane-3-carboxamide 1,1-dioxide] was below 1 µM; that for `COCCN1C(C(=O)Nc2ccc(F)c(Cl)c2)CC(c2ccc(F)cc2)NS1(=O)=O` (racemic) [HBV-CSU-210, Cis-N-(3-Chloro-4-fluorophenyl)-5-(4-fluorophenyl)-2-(2-methoxyethyl)-1,2,6-thiadiazinane-3-carboxamide 1,1-dioxide] was below 1 µM.
Then `Cc1c(-c2ccc([C@@H]3C[C@H](C(=O)Nc4ccc(F)c(Cl)c4)N(C)S(=O)(=O)N3)s2)cnn1C` [HBV-CSU-312-ISO-II, Cis-N-(3-chloro-4-fluorophenyl)-5-(5-(1,5-dimethyl-1H-pyrazol-4-yl)thiophen-2-yl)-2-methyl-1,2,6-thiadiazinane-3-carboxamide 1,1-dioxide], with 1 to 5 µM.
With `CN1[C@@H](C(=O)Nc2ccc(F)c(Cl)c2)C[C@@H](c2cc(-c3cncn3C)cs2)NS1(=O)=O` (relative stereo) [HBV-CSU-285-ISO-II, Cis-N-(3-Chloro-4-fluorophenyl)-2-methyl-5-(4-(1-methyl-1H-imidazol-5-yl)thiophen-2-yl)-1,2,6-thiadiazinane-3-carboxamide 1,1-dioxide], the EC50 is below 1 µM.
Then `CN1C(C(=O)Nc2ccc(F)c(Cl)c2)CC(c2ccc(-c3nncn3C)s2)NS1(=O)=O` (racemic) [HBV-CSU-324, Cis-N-(3-Chloro-4-fluorophenyl)-2-methyl-5-(5-(4-methyl-4H-1,2,4-triazol-3-yl)thiophen-2-yl)-1,2,6-thiadiazinane-3-carboxamide 1,1-dioxide], with below 1 µM.
Then `O=C(Nc1ccc(F)c(Cl)c1)C1CC(c2nccs2)NS(=O)(=O)N1CCO` (stereo not drawn) [HBV-CSU-097, Cis-N-(3-Chloro-4-fluorophenyl)-2-(2-hydroxyethyl)-5-(thiazol-2-yl)-1,2,6-thiadiazinane-3-carboxamide 1,1-dioxide], with above 5 µM; and `CN1[C@@H](C(=O)Nc2ccc(F)c(Cl)c2)C[C@@H](c2ccc(-c3c[nH]cn3)s2)NS1(=O)=O` [HBV-CSU-331-ISO-II, Cis-5-(5-(1H-imidazol-4-yl)thiophen-2-yl)-N-(3-chloro-4-fluorophenyl)-2-methyl-1,2,6-thiadiazinane-3-carboxamide 1,1-dioxide], with 1 to 5 µM.

(Values after patent US11078170B2 (Assembly Biosciences, Inc., priority 2017, dated 2021).)
